Data from US10206909B2, “3-(1H-pyrrolo[2,3-B]pyridin-2-yl)-1H-pyrazolo[4,3-B]pyridines and therapeutic uses thereof” (Samumed, LLC, priority 2015, dated 2019).
pEC50: −log10 of the molar value.

Columns and labels:
Assay type in all cases: cell-based
IL-6 (THP-1 cells) = assay: IL-6 inhibition in LPS-stimulated THP-1 cells (HTRF); conditions: Homo sapiens; for pEC50: THP-1 cells, LPS 500 ng/mL, 22 hours, IL6 HTRF; for inhibition at 10 µM: given where EC50 >10 μM, THP-1, IL6, read-out: percent inhibition at 10 μM
In short: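 THP-1 cells, pre-cultured 24 h in 1% FBS, were preincubated 2 h with compound over a 10-point 1:3 series from 10 μM (0.1% DMSO). They were then stimulated with 500 ng/mL LPS for 22 h at 37° C. IL-6 was read by HTRF 665/620 nm ratio, and EC50 was fitted by four-parameter regression against DMSO; above 10 μM, % inhibition at 10 μM is given.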

SW480 colon cancer cells = assay: Cell viability assay (CellTiter-Blue); conditions: Homo sapiens; for pEC50: 96 h, SW480 cell viability, four days, CellTiter-Blue; for inhibition at 10 µM: given where EC50 >10 μM, SW480 viability, read-out: percent inhibition at 10 μM
In short: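 Approximately 2×10^3 SW480 cells per well are seeded with compound (8 points, threefold steps, top 10 μM) and incubated four days at 37 °C. CellTiter-Blue is then added for about 3 h and fluorescence read. Non-linear regression gives EC50; for values beyond 10 μM, percent inhibition at that concentration is listed.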

[1] = test system: Wnt activity (Sp5-Luc reporter, SW480 colon carcinoma cells); assay: Wnt activity screening assay: Sp5-Luc reporter gene assay in SW480 cells; conditions: Homo sapiens; for pEC50: SW480 cells, overnight incubation; for inhibition at 10 µM: given where EC50 >10 μM, SW480, read-out: percent inhibition at 10 μM
In short: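 SW480 cells stably carrying Sp5-Luc reporter (eight TCF/LEF sites) plated at 4,000/well in 1% FBS medium with compound (10-point 1:3 series from 10 μM, 0.1% DMSO) overnight at 37 °C. BrightGlo luminescence normalized to DMSO; EC50 by four-parameter fit, else % inhibition at 10 μM.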

pEC50 (IL-6 (THP-1 cells))	pEC50 (SW480 colon cancer cells)	pEC50 [1]	SMILES	inhibition at 10 µM (SW480 colon cancer cells) [%]	inhibition at 10 µM [1] [%]	inhibition at 10 µM (IL-6 (THP-1 cells)) [%]
8.10	< 5.00	6.59	CC(C)Nc1cncc(-c2ccc3[nH]nc(-c4cc5c(-c6cccnc6)ccnc5[nH]4)c3n2)c1 [Compound 96, N-Isopropyl-5-(3-(4-(pyridin-3-yl)-1H-pyrrolo[2,3-b]pyridin-2-yl)-1H-pyrazolo[4,3-b]pyridin-5-yl)pyridin-3-amine]	0		
5.48	< 5.00	< 5.00	O=C(CC1CCNCC1)Nc1cncc(-c2ccc3[nH]nc(-c4cc5c(-c6ccoc6)ccnc5[nH]4)c3n2)c1 [Compound 689, N-(5-(3-(4-(Furan-3-yl)-1H-pyrrolo[2,3-b]pyridin-2-yl)-1H-pyrazolo[4,3-b]pyridin-5-yl)pyridin-3-yl)-2-(piperidin-4-yl)acetamide]	9.2	10.9	
5.74	< 5.00	< 5.00	Fc1cccc(-c2ccnc3[nH]c(-c4n[nH]c5ccc(-c6cccnc6)nc45)cc23)c1 [Compound 4, 3-(4-(3-Fluorophenyl)-1H-pyrrolo[2,3-b]pyridin-2-yl)-5-(pyridin-3-yl)-1H-pyrazolo[4,3-b]pyridine]	6.4	47.3	
< 5.00	< 5.00	< 5.00	c1csc(-c2ccnc3[nH]c(-c4n[nH]c5ccc(-c6cncnc6)nc45)cc23)c1 [Compound 363, 5-(Pyrimidin-5-yl)-3-(4-(thiophen-2-yl)-1H-pyrrolo[2,3-b]pyridin-2-yl)-1H-pyrazolo[4,3-b]pyridine]	29.3	29.8	36.3
5.46	< 5.00	< 5.00	c1cc(N2CCCCC2)c2cc(-c3n[nH]c4ccc(C5CCNCC5)nc34)[nH]c2n1 [Compound 601, 3-(4-(Piperidin-1-yl)-1H-pyrrolo[2,3-b]pyridin-2-yl)-5-(piperidin-4-yl)-1H-pyrazolo[4,3-b]pyridine]	40.7	3.5	
< 5.00	< 5.00	< 5.00	CN(C)Cc1cncc(-c2ccc3[nH]nc(-c4cc5c(N6CCCCC6)ccnc5[nH]4)c3n2)c1 [Compound 181, N,N-Dimethyl-1-(5-(3-(4-(piperidin-1-yl)-1H-pyrrolo[2,3-b]pyridin-2-yl)-1H-pyrazolo[4,3-b]pyridin-5-yl)pyridin-3-yl)methanamine]	47.5	4.1	29.2
< 5.00	< 5.00	< 5.00	Cc1ccncc1-c1ccc2[nH]nc(-c3cc4c(-c5ccc(F)cc5)ccnc4[nH]3)c2n1 [Compound 33, 3-(4-(4-Fluorophenyl)-1H-pyrrolo[2,3-b]pyridin-2-yl)-5-(4-methylpyridin-3-yl)-1H-pyrazolo[4,3-b]pyridine]	15.9	16.2	5.4
6.38	< 5.00	< 5.00	CN(C)c1cncc(-c2ccc3[nH]nc(-c4cc5c(-c6ccoc6)ccnc5[nH]4)c3n2)c1 [Compound 315, 5-(3-(4-(Furan-3-yl)-1H-pyrrolo[2,3-b]pyridin-2-yl)-1H-pyrazolo[4,3-b]pyridin-5-yl)-N,N-dimethylpyridin-3-amine]	6.1	6.6	
6.19	5.38	< 5.00	CN(C)Cc1cncc(-c2ccc3[nH]nc(-c4cc5cccnc5[nH]4)c3n2)c1 [Compound 265, 1-(5-(3-(1H-Pyrrolo[2,3-b]pyridin-2-yl)-1H-pyrazolo[4,3-b]pyridin-5-yl)pyridin-3-yl)-N,N-dimethylmethanamine]		20.6	
< 5.00	< 5.00	< 5.00	Nc1cncc(-c2ccc3[nH]nc(-c4cc5c(-c6ccncc6)ccnc5[nH]4)c3n2)c1 [Compound 115, 5-(3-(4-(Pyridin-4-yl)-1H-pyrrolo[2,3-b]pyridin-2-yl)-1H-pyrazolo[4,3-b]pyridin-5-yl)pyridin-3-amine]	17.5	24.4	22.2
< 5.00	5.49	5.22	CN1CCN(c2ccnc3[nH]c(-c4n[nH]c5ccc(-c6cncc(NC(=O)c7ccccc7)c6)nc45)cc23)CC1 [Compound 235, N-(5-(3-(4-(4-Methylpiperazin-1-yl)-1H-pyrrolo[2,3-b]pyridin-2-yl)-1H-pyrazolo[4,3-b]pyridin-5-yl)pyridin-3-yl)benzamide]			48.1
< 5.00	< 5.00	< 5.00	Fc1ccc(-c2ccnc3[nH]c(-c4n[nH]c5ccc(-c6cncc(CN7CCC(F)(F)C7)c6)nc45)cc23)cc1 [Compound 54, 5-(5-((3,3-Difluoropyrrolidin-1-yl)methyl)pyridin-3-yl)-3-(4-(4-fluorophenyl)-1H-pyrrolo[2,3-b]pyridin-2-yl)-1H-pyrazolo[4,3-b]pyridine]	27.8	10.2	34.8
6.97	< 5.00	5.43	c1csc(-c2ccnc3[nH]c(-c4n[nH]c5ccc(-c6cncc(OC7CCNCC7)c6)nc45)cc23)c1 [Compound 704, 5-(5-(Piperidin-4-yloxy)pyridin-3-yl)-3-(4-(thiophen-2-yl)-1H-pyrrolo[2,3-b]pyridin-2-yl)-1H-pyrazolo[4,3-b]pyridine]	49.5		
7.34	< 5.00	5.65	Cn1cc(-c2ccc3[nH]nc(-c4cc5cccnc5[nH]4)c3n2)cn1 [Compound 652, 5-(1-Methyl-1H-pyrazol-4-yl)-3-(1H-pyrrolo[2,3-b]pyridin-2-yl)-1H-pyrazolo[4,3-b]pyridine]	29.2		
< 5.00	< 5.00	< 5.00	c1cc(N2CCCCC2)c2cc(-c3n[nH]c4ccc(-c5cncc(CN6CCCCC6)c5)nc34)[nH]c2n1 [Compound 183, 3-(4-(Piperidin-1-yl)-1H-pyrrolo[2,3-b]pyridin-2-yl)-5-(5-(piperidin-1-ylmethyl)pyridin-3-yl)-1H-pyrazolo[4,3-b]pyridine]	45.5	6.5	18.2
6.47	5.45	< 5.00	CCCCC(=O)Nc1cncc(-c2ccc3[nH]nc(-c4cc5c(N6CCCCC6)ccnc5[nH]4)c3n2)c1 [Compound 187, N-(5-(3-(4-(Piperidin-1-yl)-1H-pyrrolo[2,3-b]pyridin-2-yl)-1H-pyrazolo[4,3-b]pyridin-5-yl)pyridin-3-yl)pentanamide]		14.3	
< 5.00	5.43	< 5.00	c1cc(-c2ccnc3[nH]c(-c4n[nH]c5ccc(-c6cncc(CNCC7CCCC7)c6)nc45)cc23)ccn1 [Compound 137, 1-Cyclopentyl-N-((5-(3-(4-(pyridin-4-yl)-1H-pyrrolo[2,3-b]pyridin-2-yl)-1H-pyrazolo[4,3-b]pyridin-5-yl)pyridin-3-yl)methyl)methanamine]		19.5	40.8
